From ChEMBL document CHEMBL1909046, “DrugMatrix in vitro pharmacology data”

Key:
[1] = target: T1, Neuropeptide Y receptor type 2 (Homo sapiens, UniProt P49146); type: cell membranes, Membrane; settings: kan-ts; also: in other assays of this panel Not Active means under 50% inhibition at 10 µM
T1 sequence (P49146 whole entry): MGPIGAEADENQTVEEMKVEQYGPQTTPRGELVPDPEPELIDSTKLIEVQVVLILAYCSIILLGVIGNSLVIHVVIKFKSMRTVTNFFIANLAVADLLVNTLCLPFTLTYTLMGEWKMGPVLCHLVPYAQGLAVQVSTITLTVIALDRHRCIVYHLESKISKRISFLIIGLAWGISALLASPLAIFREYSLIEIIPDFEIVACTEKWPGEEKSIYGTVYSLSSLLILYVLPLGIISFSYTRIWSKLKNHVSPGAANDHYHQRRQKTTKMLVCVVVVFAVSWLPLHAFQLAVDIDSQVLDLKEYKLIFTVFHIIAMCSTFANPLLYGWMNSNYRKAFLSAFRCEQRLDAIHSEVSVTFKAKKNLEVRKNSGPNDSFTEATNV

[2] = target: Insulin receptor (Rattus norvegicus, UniProt P15127); type: cell membranes, Wistar, Liver, Membrane; also: in other assays of this panel Not Active means under 50% inhibition at 10 µM
Sequence of Insulin receptor (P15127 27-759 limits assumed): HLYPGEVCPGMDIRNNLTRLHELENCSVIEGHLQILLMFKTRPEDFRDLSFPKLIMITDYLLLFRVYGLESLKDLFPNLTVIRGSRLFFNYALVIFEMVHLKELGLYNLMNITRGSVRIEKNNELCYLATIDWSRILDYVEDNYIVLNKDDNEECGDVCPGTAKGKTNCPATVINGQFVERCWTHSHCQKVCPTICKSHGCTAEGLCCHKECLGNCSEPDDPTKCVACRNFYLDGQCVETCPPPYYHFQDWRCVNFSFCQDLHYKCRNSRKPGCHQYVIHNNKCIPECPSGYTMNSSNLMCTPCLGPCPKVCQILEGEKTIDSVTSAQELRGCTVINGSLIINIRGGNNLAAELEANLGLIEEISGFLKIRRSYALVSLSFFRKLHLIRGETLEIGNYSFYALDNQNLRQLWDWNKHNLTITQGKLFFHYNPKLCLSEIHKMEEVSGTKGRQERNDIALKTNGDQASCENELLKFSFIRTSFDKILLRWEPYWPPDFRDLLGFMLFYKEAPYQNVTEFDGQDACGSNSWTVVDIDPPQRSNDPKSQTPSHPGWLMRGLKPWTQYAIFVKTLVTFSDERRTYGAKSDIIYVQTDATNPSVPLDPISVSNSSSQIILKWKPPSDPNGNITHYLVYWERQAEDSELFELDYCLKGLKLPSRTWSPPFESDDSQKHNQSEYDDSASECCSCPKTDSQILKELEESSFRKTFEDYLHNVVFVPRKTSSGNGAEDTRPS
Sequence of Insulin receptor (P15127 764-1383 limits assumed): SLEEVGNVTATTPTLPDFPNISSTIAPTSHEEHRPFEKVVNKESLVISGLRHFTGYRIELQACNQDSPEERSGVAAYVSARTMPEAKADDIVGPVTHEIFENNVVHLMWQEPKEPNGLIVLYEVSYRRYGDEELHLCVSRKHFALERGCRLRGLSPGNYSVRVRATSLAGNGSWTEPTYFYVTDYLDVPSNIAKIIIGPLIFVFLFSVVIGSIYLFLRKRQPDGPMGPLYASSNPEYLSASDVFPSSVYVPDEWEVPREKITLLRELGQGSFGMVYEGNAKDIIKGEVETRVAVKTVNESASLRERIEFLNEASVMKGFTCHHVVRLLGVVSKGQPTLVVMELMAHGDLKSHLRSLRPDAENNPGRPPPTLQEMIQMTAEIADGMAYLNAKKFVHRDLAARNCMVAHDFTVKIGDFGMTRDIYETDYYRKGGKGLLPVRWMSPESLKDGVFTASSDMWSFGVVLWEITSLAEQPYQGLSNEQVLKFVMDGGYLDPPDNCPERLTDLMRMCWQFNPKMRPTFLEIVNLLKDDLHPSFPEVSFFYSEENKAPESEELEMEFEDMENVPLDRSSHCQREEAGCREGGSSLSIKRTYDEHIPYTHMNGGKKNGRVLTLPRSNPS

[3] = target: T2, Nitric oxide synthase, inducible (Mus musculus, UniProt P29477); design: species or system Escherichia coli;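 also: inhibition of iNOS enzyme activity measured with L-arginine as substrate; in other assays of this panel Not Active means under 50% inhibition at 10 µM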
T2 sequence (P29477 whole entry): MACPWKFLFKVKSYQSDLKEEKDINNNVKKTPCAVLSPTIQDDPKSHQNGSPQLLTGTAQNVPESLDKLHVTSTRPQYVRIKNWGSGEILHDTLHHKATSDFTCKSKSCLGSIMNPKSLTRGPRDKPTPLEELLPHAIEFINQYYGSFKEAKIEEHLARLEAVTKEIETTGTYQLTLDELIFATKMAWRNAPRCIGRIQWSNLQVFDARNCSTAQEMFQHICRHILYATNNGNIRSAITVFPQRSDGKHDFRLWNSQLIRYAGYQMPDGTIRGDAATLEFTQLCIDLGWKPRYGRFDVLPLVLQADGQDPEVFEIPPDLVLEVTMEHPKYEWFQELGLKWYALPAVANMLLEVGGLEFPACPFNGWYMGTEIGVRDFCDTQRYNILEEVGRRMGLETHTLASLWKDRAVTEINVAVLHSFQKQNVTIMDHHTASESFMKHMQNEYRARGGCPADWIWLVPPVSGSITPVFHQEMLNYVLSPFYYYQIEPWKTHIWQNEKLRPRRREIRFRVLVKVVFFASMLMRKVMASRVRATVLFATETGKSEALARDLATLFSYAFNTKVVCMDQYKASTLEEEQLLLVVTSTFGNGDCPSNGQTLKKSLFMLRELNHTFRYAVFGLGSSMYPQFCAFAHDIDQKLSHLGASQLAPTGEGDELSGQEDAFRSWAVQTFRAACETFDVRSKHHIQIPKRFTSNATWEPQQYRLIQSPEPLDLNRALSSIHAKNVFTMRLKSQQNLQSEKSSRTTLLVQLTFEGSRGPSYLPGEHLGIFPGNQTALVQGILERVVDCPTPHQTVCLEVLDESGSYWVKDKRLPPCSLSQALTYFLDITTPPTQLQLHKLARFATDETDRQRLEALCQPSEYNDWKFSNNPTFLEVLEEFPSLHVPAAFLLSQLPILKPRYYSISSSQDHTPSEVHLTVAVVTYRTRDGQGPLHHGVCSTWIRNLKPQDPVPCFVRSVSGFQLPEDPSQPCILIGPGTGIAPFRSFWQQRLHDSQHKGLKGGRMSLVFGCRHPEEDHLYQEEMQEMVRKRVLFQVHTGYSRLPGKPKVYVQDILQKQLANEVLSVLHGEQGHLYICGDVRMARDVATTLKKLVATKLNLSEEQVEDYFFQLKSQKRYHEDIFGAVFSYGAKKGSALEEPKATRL

[4] = target: Aldo-keto reductase family 1 member B1 (Rattus norvegicus, UniProt P07943); assay: biochemical; type: tissue-based, Lens of camera-type eye;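 also: inhibition of aldose reductase enzyme activity, measured with DL-glyceraldehyde as the substrate; in other assays of this panel Not Active means under 50% inhibition at 10 µM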
[5] = target: Delta-type opioid receptor (Homo sapiens, UniProt P41143); type: cell membranes, HEK293, Membrane; settings: hek293; also: in other assays of this panel Not Active means under 50% inhibition at 10 µM
Sequence of Delta-type opioid receptor (P41143 whole entry): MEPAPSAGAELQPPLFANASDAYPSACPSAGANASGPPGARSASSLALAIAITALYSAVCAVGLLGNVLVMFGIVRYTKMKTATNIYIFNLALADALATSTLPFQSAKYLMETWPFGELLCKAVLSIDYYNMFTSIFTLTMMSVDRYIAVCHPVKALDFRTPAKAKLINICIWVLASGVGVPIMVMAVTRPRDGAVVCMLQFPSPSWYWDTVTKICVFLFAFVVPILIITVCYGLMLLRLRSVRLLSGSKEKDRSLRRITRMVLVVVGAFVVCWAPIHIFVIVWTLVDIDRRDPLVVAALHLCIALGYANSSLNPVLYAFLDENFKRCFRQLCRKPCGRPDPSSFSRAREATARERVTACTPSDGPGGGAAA

[6] = DRUGMATRIX: Glutamate, NMDA, Agonism radioligand binding (ligand: [3H] CGP-39653); type: cell membranes, Rattus norvegicus, Wistar, Cerebral cortex, Membrane; settings: Not Active = under 50% inhibition at 10 µM
[7] = target: Protein kinase C alpha type (Homo sapiens, UniProt P17252); type: cell-based; settings: sf9
[8] = target: T3, Cholecystokinin receptor type A (Homo sapiens, UniProt P32238); type: cell membranes, Membrane; settings: 1321-n1; also: in other assays of this panel Not Active means under 50% inhibition at 10 µM
T3 sequence (P32238 whole entry): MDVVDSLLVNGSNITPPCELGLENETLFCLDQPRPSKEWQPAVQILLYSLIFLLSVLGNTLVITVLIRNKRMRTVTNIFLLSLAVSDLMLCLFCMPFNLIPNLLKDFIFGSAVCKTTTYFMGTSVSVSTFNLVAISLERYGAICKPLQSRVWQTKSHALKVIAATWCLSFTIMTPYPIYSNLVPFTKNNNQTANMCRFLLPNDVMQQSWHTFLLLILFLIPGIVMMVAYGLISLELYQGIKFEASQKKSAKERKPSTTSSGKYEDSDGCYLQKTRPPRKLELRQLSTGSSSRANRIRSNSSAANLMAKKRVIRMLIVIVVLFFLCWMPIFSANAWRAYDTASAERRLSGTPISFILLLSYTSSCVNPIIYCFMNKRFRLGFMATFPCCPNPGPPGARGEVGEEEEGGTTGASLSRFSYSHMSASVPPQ

[9] = target: T4, Cathepsin G (Homo sapiens, UniProt P08311); assay: biochemical; type: tissue-based, Neutrophil; settings: neutrophil
T4 sequence (P08311 whole entry): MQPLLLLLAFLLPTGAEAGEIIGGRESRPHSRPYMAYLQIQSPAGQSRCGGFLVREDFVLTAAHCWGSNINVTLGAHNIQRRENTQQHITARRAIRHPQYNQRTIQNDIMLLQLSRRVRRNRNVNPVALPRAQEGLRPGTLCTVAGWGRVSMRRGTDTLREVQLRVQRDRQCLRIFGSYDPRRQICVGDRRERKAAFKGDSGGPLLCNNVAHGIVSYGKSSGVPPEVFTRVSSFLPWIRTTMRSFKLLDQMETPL

CC(N)C12CC3CC(CC(C3)C1)C2 (configuration not stated) [RIMANTADINE]
Not Active: IC50 [1] | IC50 [2] | IC50 [3] | IC50 [4] | IC50 [5] | IC50 [6] | Ki [6] | IC50 [7] | IC50 [8] | IC50 [9]

CS(=O)(=O)c1ccc(C2=C(c3ccccc3)C(=O)OC2)cc1 [ROFECOXIB]
Not Active: IC50 [1] | IC50 [2] | IC50 [3] | IC50 [4] | IC50 [5] | IC50 [6] | Ki [6] | IC50 [7] | IC50 [8] | IC50 [9]

CCOc1cc(N)c(Cl)cc1C(=O)NCC1CN(Cc2ccc(F)cc2)CCO1 (configuration not stated) [MOSAPRIDE]
Not Active: IC50 [1] | IC50 [2] | IC50 [3] | IC50 [4] | IC50 [5] | IC50 [6] | Ki [6] | IC50 [7] | IC50 [8] | IC50 [9]

Cc1ccnc(NS(=O)(=O)c2ccc(N)cc2)n1 [SULFAMERAZINE]
Not Active: IC50 [1] | IC50 [2] | IC50 [3] | IC50 [4] | IC50 [5] | IC50 [6] | Ki [6] | IC50 [7] | IC50 [8] | IC50 [9]

OC[C@@H](O)[C@@H](O)[C@H](O)[C@H](O)CO [MANNITOL]
Not Active: IC50 [1] | IC50 [2] | IC50 [3] | IC50 [4] | IC50 [5] | IC50 [6] | Ki [6] | IC50 [7] | IC50 [8] | IC50 [9]

Oc1ccc(/C=C/c2cc(O)cc(O)c2)cc1 [RESVERATROL]
Not Active: IC50 [1] | IC50 [2] | IC50 [3] | IC50 [4] | IC50 [5] | IC50 [6] | Ki [6] | IC50 [7] | IC50 [8] | IC50 [9]

CC1=C(/C=C/C(C)=C/C=C/C(C)=C/C(=O)O)C(C)(C)CCC1 [TRETINOIN]
Not Active: IC50 [1] | IC50 [2] | IC50 [3] | IC50 [4] | IC50 [5] | IC50 [6] | Ki [6] | IC50 [7] | IC50 [8] | IC50 [9]

C=CCc1ccc2c(c1)OCO2 [SAFROLE]
Not Active: IC50 [1] | IC50 [2] | IC50 [3] | IC50 [4] | IC50 [5] | IC50 [6] | Ki [6] | IC50 [7] | IC50 [8] | IC50 [9]

CCN(CC)N=O [N-NITROSODIETHYLAMINE]
Not Active: IC50 [1] | IC50 [2] | IC50 [3] | IC50 [4] | IC50 [5] | IC50 [6] | Ki [6] | IC50 [7] | IC50 [8] | IC50 [9]

CCN1CCCC1CNC(=O)c1cc(S(N)(=O)=O)ccc1OC (configuration not stated) [SULPIRIDE]
Not Active: IC50 [1] | IC50 [2] | IC50 [3] | IC50 [4] | IC50 [5] | IC50 [6] | Ki [6] | IC50 [7] | IC50 [8] | IC50 [9]

O=C1CC[C@@]2(O)[C@H]3Cc4ccc(O)c5c4[C@@]2(CCN3CC2CC2)[C@H]1O5 [NALTREXONE]
Not Active: IC50 [1] | IC50 [2] | IC50 [3] | IC50 [4] | IC50 [6] | Ki [6] | IC50 [7] | IC50 [8] | IC50 [9]

C[N+]1(C)[C@@H]2C[C@@H](OC(=O)[C@H](CO)c3ccccc3)C[C@H]1[C@@H]1O[C@@H]12.[Br-] [METHSCOPOLAMINE BROMIDE]
Not Active: IC50 [1] | IC50 [2] | IC50 [3] | IC50 [4] | IC50 [5] | IC50 [6] | Ki [6] | IC50 [7] | IC50 [8] | IC50 [9]

CCN(CC)CCNC(=O)c1cc(Cl)c(N)cc1OC [METOCLOPRAMIDE]
Not Active: IC50 [1] | IC50 [2] | IC50 [3] | IC50 [4] | IC50 [5] | IC50 [6] | Ki [6] | IC50 [7] | IC50 [8] | IC50 [9]

O=C(OC[C@H]1O[C@@H](OC(=O)c2cc(O)c(O)c(OC(=O)c3cc(O)c(O)c(O)c3)c2)[C@H](OC(=O)c2cc(O)c(O)c(OC(=O)c3cc(O)c(O)c(O)c3)c2)[C@@H](OC(=O)c2cc(O)c(O)c(OC(=O)c3cc(O)c(O)c(O)c3)c2)[C@@H]1OC(=O)c1cc(O)c(O)c(OC(=O)c2cc(O)c(O)c(O)c2)c1)c1cc(O)c(O)c(OC(=O)c2cc(O)c(O)c(O)c2)c1 [TANNIC ACID]
346 nM: IC50 ([4]; read-out: IC50)
Not Active: IC50 [1] | IC50 [2] | IC50 [3] | IC50 [5] | IC50 [6] | Ki [6] | IC50 [7] | IC50 [8] | IC50 [9]

CN1C(=O)OC(C)(C)C1=O [TRIMETHADIONE]
Not Active: IC50 [1] | IC50 [2] | IC50 [3] | IC50 [4] | IC50 [5] | IC50 [6] | Ki [6] | IC50 [7] | IC50 [8] | IC50 [9]

Cc1cc2c(s1)Nc1ccccc1N=C2N1CCN(C)CC1 [OLANZAPINE]
Not Active: IC50 [1] | IC50 [2] | IC50 [3] | IC50 [4] | IC50 [5] | IC50 [7] | IC50 [8] | IC50 [9]

CN(C)CCC=C1c2ccccc2COc2ccccc21 [DOXEPIN]
Not Active: IC50 [1] | IC50 [2] | IC50 [3] | IC50 [4] | IC50 [5] | IC50 [7] | IC50 [9]

CNCCCC12CCC(c3ccccc31)c1ccccc12 [MAPROTILINE]
Not Active: IC50 [1] | IC50 [2] | IC50 [3] | IC50 [4] | IC50 [5] | IC50 [7] | IC50 [8] | IC50 [9]
